Assay results as given in publication PMC8765320, “Identification of a Proteasome-Targeting Arylsulfonamide with Potential for the Treatment of Chagas’ Disease” (Antimicrobial Agents and Chemotherapy, 2022).
Read-outs that look alike come from different tables or passages of the source.

Key:
T. cruzi epimastigotes = assay: T. cruzi epimastigote drug sensitivity assay (resazurin); format: cell-based, Trypanosoma cruzi; conditions: for EC50: Trypanosoma cruzi
Experimental: To examine the effects of test compounds on the growth of T. cruzi epimastigotes, mid-log-phase parasites were seeded into 96-well plates at a cell density of 5 × 10^5 cells ml^−1. Cells were exposed to test compounds over a range of concentrations (2-fold serial dilutions). Cells were incubated for 4 days, and then 20 μl of 2.5 mM resazurin was added to each well, before measuring the fluorescence (excitation, 528 nm; emission, 590 nm), following a further 24 h of incubation. […] In this equation, [I] represents the inhibitor concentration, and m is the slope factor. Experiments were repeated at least two times, and the data are presented as means plus the standard deviations.

[1] = test system: L. donovani promastigotes; assay: L. donovani promastigote drug sensitivity assay; format: cell-based, Leishmania donovani; conditions: for EC50: Leishmania donovani
Experimental: L. donovani promastigote ([35]), axenic amastigote ([25]), and T. brucei bloodstream form ([36]) drug sensitivity assays were carried out as previously described. HepG2 monolayers were washed twice in PBS, detached with 0.05% trypsin/EDTA, and then diluted with fully supplemented MEM growth medium. Cells were pelleted at 80 × g for 5 min and resuspended in fully supplemented growth medium. Cells were seeded into 96-well plates (5 × 10^4/well) and allowed to adhere prior to exposure to test compounds. Plates were incubated at 37°C in the presence of 5% CO2 for 72 h. After incubation, resazurin (20 μl of a 2.5-mg/ml^−1 stock solution) was added to each well, followed by incubation for a further 2 h prior to fluorescence being read as described above.

[2] = test system: ubiquitinated proteins in T. cruzi epimastigotes; assay: Accumulation of ubiquitinated proteins in treated epimastigotes (LC-MS/MS); format: cell-based, Trypanosoma cruzi; conditions: epimastigotes pretreated 8 h at 3× EC50 (methods: 8× EC50); one biological replicate
Experimental: In cells where the function of the proteasome has been compromised, there is a concomitant build-up of ubiquitinated proteins earmarked for degradation. […] Control cultures were treated for the same period of time in the presence of dimethyl sulfoxide (DMSO). Enrichment of ubiquitinated proteins was achieved by immunoprecipitation using magnetic beads conjugated to an antibody specific for the remnant of ubiquitinated lysines following digestion with trypsin and/or LysC. We used liquid chromatography-tandem mass spectrometry (LC-MS/MS) to calculate the ubiquitination ratio of each sample by dividing the reporter intensity of ubiquitinated proteins by the reporter intensity of total protein (see Table S8). As expected, the accumulation of ubiquitinylated proteins was highest in epimastigotes treated with bortezomib (2.7-fold higher than in the DMSO-treated control), which is known to inhibit all three catalytic activities of the proteasome (Fig. 3). […] Similarly, ubiquitinated proteins accumulated to levels 1.9-fold higher in compound 1-treated parasites compared to those recovered from DMSO-treated control cells.
Controls were incubated in the presence of diluent (DMSO). Cells were harvested by centrifugation (1,912 × g, 15 min, 4°C) and washed with ice-cold PBS (1,912 × g, 5 min, 4°C); finally, the cell pellets were resuspended in 1.5 ml of ice-cold lysis buffer (1 mM EDTA, 1 mM DTT, 100 μM TLCK, and 1× Roche EDTA-free cOmplete protease inhibitor cocktail in 50 mM potassium phosphate buffer [pH 7.4]). Cell suspensions were submitted to three freeze-thaw cycles in a dry ice/ethanol bath to biologically inactivate the parasites and then lysed using a OneShot cell disruptor (Constant Systems) at 30 kpsi.
Cell lysates were centrifuged (100,000 × g, 20 min, 4°C), supernatants were collected, and the protein concentrations were determined by using a standard Bio-Rad protein assay. […]

For `COc1ccc(NS(=O)(=O)c2cc(-c3cc(C)n[nH]3)ccc2C)cc1OC` [Compound 1], the EC50 (T. cruzi epimastigotes; T. cruzi epimastigote, weighted mean, n ≥ 3, read-out: Mean compound 1 EC50 ± SD) was 3 ± 0.08 µM, the EC50 (T. cruzi epimastigotes; WT promastigotes (so in the source), Fig. 2B, one biological replicate, read-out: EC50) was 0.7 ± 0.01 µM and the EC50 (T. cruzi epimastigotes; cell line Wild type, read-out: Mean EC50 ± SD) was 3.3 ± 0.08 µM. The EC50 (T. cruzi epimastigotes; read-out: Mean EC50 ± SD, cell line ME OE (cTcME overexpressing)) was 5 ± 0.11 µM, the EC50 (T. cruzi epimastigotes; read-out: Mean EC50 ± SD, cell line RES I (compound 1-resistant, β5 D225N)) was 61 ± 1 µM and the EC50 (T. cruzi epimastigotes; read-out: Mean EC50 ± SD, cell line RES II (compound 1-resistant, β5 D225N)) was 54 ± 1 µM. The EC50 (T. cruzi epimastigotes; read-out: Mean EC50 ± SD, cell line RES III (compound 1-resistant, β5 D225N)) was 61 ± 0.7 µM, the EC50 (T. cruzi epimastigotes; read-out: Mean EC50 ± SD, cell line RES IV (compound 1-resistant, no proteasome mutation)) was 31 ± 2 µM and the EC50 (T. cruzi epimastigotes; read-out: Mean EC50 ± SD, cell line RES V (compound 1-resistant, β4 I27T)) was 70 ± 2 µM. The EC50 (T. cruzi epimastigotes; read-out: Mean EC50 ± SD, cell line Res I-β5 OE (β5 WT overexpressed in RES I)) was 13 ± 0.8 µM, the EC50 (T. cruzi epimastigotes; read-out: Mean EC50 ± SD, cell line β4 F24L/I29M (CRISPR-edited)) was > 50 µM and the EC50 (T. cruzi epimastigotes; read-out: Mean EC50 ± SD, cell line β5 D225N-OE (overexpressing mutated β5)) was 27 ± 1 µM. The EC50 (T. cruzi epimastigotes; resistant clone I, Fig. 2B, one biological replicate, read-out: EC50) was 23 ± 4 µM, the EC50 (T. cruzi epimastigotes; resistant clone II, Fig. 2B, one biological replicate, read-out: EC50) was 16 ± 0.3 µM and the EC50 (T. cruzi epimastigotes; resistant clone IV, Fig. 2B, one biological replicate, read-out: EC50) was 11 ± 1 µM. For the same compound, the EC50 (T. cruzi epimastigotes; resistant clone V, Fig. 2B, one biological replicate, read-out: EC50) was 14 ± 6 µM, the “fold change versus the WT” value (T. cruzi epimastigotes; cell line ME OE) was 1 fold and the “fold change versus the WT” value (T. cruzi epimastigotes; cell line RES I) was 18 fold. For the same compound, the “fold change versus the WT” value (T. cruzi epimastigotes; cell line RES II) was 16 fold, the “fold change versus the WT” value (T. cruzi epimastigotes; cell line RES III) was 18 fold and the “fold change versus the WT” value (T. cruzi epimastigotes; cell line RES IV) was 9 fold. The “fold change versus the WT” value (T. cruzi epimastigotes; cell line RES V) was 21 fold, the “fold change versus the WT” value (T. cruzi epimastigotes; cell line Res I-β5 OE) was 4 fold and the “fold change versus the WT” value (T. cruzi epimastigotes; cell line β4 F24L/I29M) was > 15 fold. The “fold change versus the WT” value (T. cruzi epimastigotes; cell line β5 D225N-OE) was 8 fold, the “susceptibility of CRISPR-edited epimastigotes” value (T. cruzi epimastigotes; β4 F24L and I29M, at all of the concentrations tested) was “refractory” and the “fold change versus WT” value ([1]; L. donovani cell line cLdME OE) was “=”. For the same compound, the “fold change versus WT” value ([1]; L. donovani compound 2-resistant line (G197S in β5 subunit)) was 260 fold, the EC99 in promastigotes ([1]; L. donovani promastigotes) was 300 nM and the EC50 ([1]; read-out: Compound 1 EC50 values, L. donovani cell line Compound 2 RES III (G197S in β5 subunit)) was 26 ± 4 µM. For the same compound, the EC50 ([1]; L. donovani cell line Wild-type, read-out: Compound 1 EC50 values) was 0.1 ± 0.005 µM, the EC50 ([1]; L. donovani promastigote, weighted mean, n ≥ 3, read-out: Mean compound 1 EC50 ± SD) was 0.1 ± 0.005 µM and the “accumulation of ubiquitinated proteins versus DMSO-treated control” value [2] was 1.9 fold.
